The values below come from patent US20130012546A1 (priority 2009, published 2013).

One data set can be described thus: logP(HCOOH) by HPLC. The conditions noted are these: HPLC on reversed phase columns, pH 2.7, 0.1% formic acid in water / acetonitrile, linear gradient 10% to 95% acetonitrile; EEC directive 79/831 Annex V.A8. It counts as physicochemical.
Another data set relates to Phytophthora infestans. The format is in vivo. Conditions: tomato plants, preventive spray, 100 ppm of active ingredient, evaluated 7 days after inoculation.
A further data set relates to Pythium ultimum. The data set is described as follows: Pythium test (cotton) / seed treatment. The format is in vivo. The conditions noted are these: 10 g/dt seed of active ingredient, emerged seedlings counted after 7 days in greenhouse. The protocol:
Pythium Test (Cotton)/Seed Treatment
The test is performed under greenhouse conditions.
Cotton seeds, treated with the active compound or compound combinations, solved in N-methyl-2-pyrrolidon and diluted with water to the desired dosages, were sown in 6*6 cm pots containing 4 cm of a 1:1 mix of steamed field soil and sand.
Perlite was incubated with mycelium fragments of Pythium ultimum. 1 ml of infected perlite was scattered between the treated cotton seeds. Seeds were then covered by light expanded clay aggregate. Pots were incubated in the greenhouse 7 days at 20° C. and 80% relative humidity.
Assessment consisted of counting of emerged seedlings. 0% means an efficacy which corresponds to that of the control, while an efficacy of 100% means that all seedlings have emerged.

In another data set the test system is Plasmopara viticola. Description: Plasmopara test (grapevines) / preventive. Conditions: preventive spray, 10 ppm of active ingredient, evaluated 6 days after inoculation. It counts as in vivo. The protocol:
Plasmopara Test (Grapevines)/Preventive
Solvent: 24.5 parts by weight of acetone • 24.5 parts by weight of dimethylacetamide Emulsifier: 1 part by weight of alkylaryl polyglycol ether
To produce a suitable preparation of active compound, 1 part by weight of active compound is mixed with the stated amounts of solvent and emulsifier, and the concentrate is diluted with water to the desired concentration.
To test for preventive activity, young plants are sprayed with the preparation of active compound at the stated rate of application. After the spray coating has dried on, the plants are inoculated with an aqueous spore suspension of Plasmopara viticola and then remain for 1 day in an incubation cabinet at approximately 20° C. and a relative atmospheric humidity of 100%. The plant is subsequently placed for 4 days in a greenhouse at approximately 21° C. and a relative atmospheric humidity of approximately 90%. The plants are then misted and placed for 1 day in an incubation cabinet.
The test is evaluated 6 days after the inoculation. 0% means an efficacy which corresponds to that of the untreated control, while an efficacy of 100% means that no disease is observed.

The structures appear in SMILES notation.

On to `C=C=CCCC(=O)Nc1cccc(CON=C(c2ccccc2)c2nnnn2C)n1` [Example 101], for which, in “logP(HCOOH) by HPLC”, the log p is 3.21. Moreover, the Efficacy % in the data set with Phytophthora infestans is 93%; in the data set on Pythium ultimum, 100%; in the data set with Plasmopara viticola, 81%.
As to `Cn1nnnc1C(=NOCc1csc(NC(=O)COC2CCCC2)n1)c1ccccc1` [Example 84], the log p in the data set “logP(HCOOH) by HPLC” is given as 3.53. Further, the Efficacy % came out at 98% in the data set on Phytophthora infestans and 90% with Plasmopara viticola.
In turn, `CC(OC1CCCCC1)C(=O)Nc1nc(CON=C(c2ccccc2)c2nnnn2C)cs1` (stereo not drawn) [Example 92] showed a log p in the data set “logP(HCOOH) by HPLC” of 4.14. Besides, the results for the Efficacy % with Phytophthora infestans and in the data set with Plasmopara viticola were 100% and 93%, respectively.
For `C=CCOC(C)C(=O)Nc1nc(CO/N=C(/c2ccccc2)n2nnnc2C)cs1` (stereo not drawn) [Example 45] the same measures were 3.19, 95% and 84%.
For the molecule `Cn1nnnc1C(=NOCc1csc(NC(=O)COC2CCCCC2)n1)c1ccccc1` [Example 12], the log p in “logP(HCOOH) by HPLC” amounted to 3.85. For the same molecule, the results for the Efficacy % in the data set on Phytophthora infestans, in the data set on Pythium ultimum and in the data set with Plasmopara viticola were 92%, 100% and 94%, respectively.
For `Cn1nnnc1C(=NOCc1csc(NC(=O)COC2CCCCCC2)n1)c1ccccc1` [Example 91] the same measures were 4.23, 100%, 96% and 94%.
In the data set “logP(HCOOH) by HPLC”, `Cc1nnnn1C(=NOCc1cccc(NC(=O)OCC2CCCCC2)n1)c1ccccc1` [Example 16] returned a log p of 4.8. For the same molecule, the Efficacy % is 95% with Phytophthora infestans and 85% with Plasmopara viticola.
For `Cc1nnnn1C(=NOCc1cccc(NC(=O)OC(C)CC2CC2)n1)c1ccccc1` (stereo not drawn) [Example 14], in that order: 4.24, 95% and 94%.
Regarding `C#CCOC(C)C(=O)Nc1nc(CO/N=C(/c2ccccc2)n2nnnc2C)cs1` (stereo not drawn) [Example 53], in the data set “logP(HCOOH) by HPLC”, the log p is 2.92. In addition, the Efficacy % in the data set with Phytophthora infestans came to 95%; in the data set with Pythium ultimum, 100%; in the data set on Plasmopara viticola, 95%.
For `C#CCOC(C)C(=O)Nc1nc(CO/N=C(/c2ccccc2)c2nnnn2C)cs1` (stereo not drawn) [Example 51], the log p in “logP(HCOOH) by HPLC” is recorded as 2.82. Moreover, the Efficacy % amounted to 95% in the data set on Phytophthora infestans, 100% in the data set with Pythium ultimum and 96% with Plasmopara viticola.
Consider `Cc1nnnn1C(=NOCc1cccc(NC(=O)OCC2CCCC2)n1)c1ccccc1` [Example 20], for which, in “logP(HCOOH) by HPLC”, the log p amounted to 4.41. The Efficacy % in the data set on Phytophthora infestans was found to be 95%; with Plasmopara viticola, 97%.
In turn, `C=CCCOC(C)C(=O)Nc1nc(CO/N=C(/c2ccccc2)c2nnnn2C)cs1` (stereo not drawn) [Example 46] gave a log p in the data set “logP(HCOOH) by HPLC” of 3.48. Further, the Efficacy % in the data set on Phytophthora infestans turned out to be 98%; in the data set on Plasmopara viticola it was 79%.
`CON=C(C(=O)Nc1nc(CON=C(c2ccccc2)c2nnnn2C)cs1)c1ccccc1Cl` [Example 10] yielded a log p in the data set “logP(HCOOH) by HPLC” of 3.87. Also, the Efficacy % with Phytophthora infestans came out at 95%; with Pythium ultimum it was 88%; in the data set with Plasmopara viticola it was 90%.
With `Cc1nnnn1C(=NOCc1csc(NC(=O)COC2CCCCCC2)n1)c1ccccc1` [Example 89], in “logP(HCOOH) by HPLC”, the log p was found to be 4.3. The Efficacy % in the data set on Phytophthora infestans is listed as 100%; in the data set with Plasmopara viticola, 73%.
As to `Cn1nnnc1C(=NOCc1csc(NC(=O)OCCC2CCCCC2)n1)c1ccccc1` [Example 62], the log p in “logP(HCOOH) by HPLC” worked out at 4.66. Further, the results for the Efficacy % with Phytophthora infestans and in the data set with Plasmopara viticola were 100% and 88%, respectively.
For `Cc1nnnn1C(=NOCc1csc(NC(=O)COC2CCCCC2)n1)c1ccccc1` [Example 78] the same measures were 3.89, 100% and 79%.
As to `Cc1nnnn1C(=NOCc1cccc(NC(=O)OCCCC2CC2)n1)c1ccccc1` [Example 18], the log p in the data set “logP(HCOOH) by HPLC” is given as 4.29. The Efficacy % in the data set with Phytophthora infestans worked out at 100%; with Plasmopara viticola, 72%.
The molecule `CC(=NOCC(=O)Nc1nc(CON=C(c2ccccc2)n2nnnc2C)cs1)c1ccccc1` [Example 39] yielded a log p in the data set “logP(HCOOH) by HPLC” of 3.79. The Efficacy % came out at 98% in the data set on Phytophthora infestans and 85% in the data set on Pythium ultimum.
Turning to `Cn1nnnc1C(=NOCc1csc(NC(=O)OCC2CC2)n1)c1ccccc1` [Example 63], in “logP(HCOOH) by HPLC”, the log p is recorded as 3.23. For the same molecule, the Efficacy % in the data set on Phytophthora infestans is reported as 100%; in the data set on Plasmopara viticola, 93%.
`C=C=CCCC(=O)Nc1nc(CON=C(c2ccccc2)c2nnnn2C)cs1` [Example 102]: the log p in “logP(HCOOH) by HPLC” is on record as 3.11. Moreover, the values for the Efficacy % with Phytophthora infestans and with Plasmopara viticola were 80% and 83%, respectively.
`C=CCCOCC(=O)Nc1nc(CO/N=C(/c2ccccc2)c2nnnn2C)cs1` [Example 47]: in the data set “logP(HCOOH) by HPLC”, the log p is 3.19. Besides, the Efficacy % in the data set with Phytophthora infestans turned out to be 95%; in the data set with Plasmopara viticola it was 82%.
Consider `C=CCOC(C)C(=O)Nc1nc(CO/N=C(/c2ccccc2)c2nnnn2C)cs1` (stereo not drawn) [Example 48], for which the log p in “logP(HCOOH) by HPLC” is reported as 3.13. Further, the results for the Efficacy % with Phytophthora infestans and with Plasmopara viticola were 100% and 74%, respectively.
For `CC(CC1CC1)OC(=O)Nc1nc(CON=C(c2ccccc2)c2nnnn2C)cs1` (stereo not drawn) [Example 64] the same measures were 3.83, 95% and 94%.
For the molecule `C=CCCCOCC(=O)Nc1nc(CON=C(c2ccccc2)c2nnnn2C)cs1` [Example 6], in “logP(HCOOH) by HPLC”, the log p is reported as 3.52. For the same molecule, the Efficacy % with Phytophthora infestans was determined as 95%; in the data set on Plasmopara viticola, 90%.
For `Cc1nnnn1C(=NOCc1csc(NC(=O)COC2CCCC2)n1)c1ccccc1` [Example 86], in that order: 3.6, 95% and 81%.
For `C=CCOC(C)C(=O)Nc1cccc(CO/N=C(/c2ccccc2)c2nnnn2C)n1` (stereo not drawn) [Example 42] the same measures were 3.35, 98% and 70%.
Take `Cc1nnnn1C(=NOCc1csc(NC(=O)C(C)OC2CCCC2)n1)c1ccccc1` (stereo not drawn) [Example 93]: the log p in the data set “logP(HCOOH) by HPLC” came to 3.87. Besides, the Efficacy % in the data set with Phytophthora infestans was determined as 100%; in the data set with Plasmopara viticola it was 91%.
